The target in experiment [1] is T1, Endoribonuclease toxin MazF (Escherichia coli K-12, UniProt P0AE70).
T1 sequence (P0AE70 whole entry): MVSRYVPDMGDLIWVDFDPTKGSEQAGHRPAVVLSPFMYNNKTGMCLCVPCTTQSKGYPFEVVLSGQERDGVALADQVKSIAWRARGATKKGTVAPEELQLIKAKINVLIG
The experiment is described as follows: substrate-only fluorescence increase artefacts – biochemical, single-stranded RNase substrate, counter-screen for MazEF activator project, dose response (AID 588502). The format is functional.

In experiment [2] the target is T1, Endoribonuclease toxin MazF. The experiment in a line: activation of MazEF endoribonuclease cleavage – biochemical, fluorescence, single-stranded RNA substrate, uHTS hits, dose response (AID 588481). It counts as functional.
The next experiment has as its target Cytochrome P450 2C9 (Homo sapiens, UniProt P11712).
Experiment [3] addresses T2, Sentrin-specific protease 7 (Homo sapiens, UniProt Q9BQF6).
T2 sequence (Q9BQF6 whole entry): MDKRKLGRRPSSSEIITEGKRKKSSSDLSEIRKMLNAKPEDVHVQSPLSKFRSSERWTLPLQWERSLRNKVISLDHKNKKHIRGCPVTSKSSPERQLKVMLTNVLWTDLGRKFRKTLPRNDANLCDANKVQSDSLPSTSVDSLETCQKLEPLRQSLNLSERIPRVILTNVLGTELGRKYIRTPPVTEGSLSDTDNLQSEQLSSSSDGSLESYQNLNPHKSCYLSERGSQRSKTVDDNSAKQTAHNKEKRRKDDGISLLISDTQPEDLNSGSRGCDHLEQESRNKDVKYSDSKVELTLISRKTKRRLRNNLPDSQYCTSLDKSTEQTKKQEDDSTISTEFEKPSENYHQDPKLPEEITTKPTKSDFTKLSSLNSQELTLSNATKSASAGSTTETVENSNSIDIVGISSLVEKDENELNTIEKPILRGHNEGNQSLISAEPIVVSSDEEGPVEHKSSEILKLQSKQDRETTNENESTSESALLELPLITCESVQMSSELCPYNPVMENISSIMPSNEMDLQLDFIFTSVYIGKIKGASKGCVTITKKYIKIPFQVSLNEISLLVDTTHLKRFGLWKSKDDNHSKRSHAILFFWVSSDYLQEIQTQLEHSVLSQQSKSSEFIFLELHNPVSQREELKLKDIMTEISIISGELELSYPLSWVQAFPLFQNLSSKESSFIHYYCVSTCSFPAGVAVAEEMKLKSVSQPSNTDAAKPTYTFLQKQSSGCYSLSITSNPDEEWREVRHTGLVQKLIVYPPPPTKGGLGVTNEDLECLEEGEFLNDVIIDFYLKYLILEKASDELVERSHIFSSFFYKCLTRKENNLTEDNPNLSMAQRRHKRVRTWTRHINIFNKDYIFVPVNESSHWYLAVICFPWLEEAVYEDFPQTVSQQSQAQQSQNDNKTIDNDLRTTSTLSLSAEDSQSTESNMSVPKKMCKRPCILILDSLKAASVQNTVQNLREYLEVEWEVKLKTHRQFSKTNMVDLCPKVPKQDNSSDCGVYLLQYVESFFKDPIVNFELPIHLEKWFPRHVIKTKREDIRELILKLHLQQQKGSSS
The experiment is described as follows: inhibition of human SENP7 cleavage activity – biochemical, luminescence, SAR follow-up (AID 504497). It counts as functional.

The target of experiment [4] is T3, Sentrin-specific protease 8 (Homo sapiens, UniProt Q96LD8).
T3 sequence (Q96LD8 whole entry): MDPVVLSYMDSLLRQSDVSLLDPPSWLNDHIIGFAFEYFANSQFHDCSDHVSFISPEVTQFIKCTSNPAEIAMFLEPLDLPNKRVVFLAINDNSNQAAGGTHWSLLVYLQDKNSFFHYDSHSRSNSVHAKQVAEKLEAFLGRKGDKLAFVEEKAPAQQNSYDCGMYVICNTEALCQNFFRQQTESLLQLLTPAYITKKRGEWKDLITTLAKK
The experiment in a line: inhibition of human SENP8 cleavage activity – biochemical, luminescence, SAR follow-up (AID 504501). It counts as functional.

The next experiment has as its target T4, Caspase-3 (Homo sapiens, UniProt P42574).
T4 sequence (P42574 whole entry): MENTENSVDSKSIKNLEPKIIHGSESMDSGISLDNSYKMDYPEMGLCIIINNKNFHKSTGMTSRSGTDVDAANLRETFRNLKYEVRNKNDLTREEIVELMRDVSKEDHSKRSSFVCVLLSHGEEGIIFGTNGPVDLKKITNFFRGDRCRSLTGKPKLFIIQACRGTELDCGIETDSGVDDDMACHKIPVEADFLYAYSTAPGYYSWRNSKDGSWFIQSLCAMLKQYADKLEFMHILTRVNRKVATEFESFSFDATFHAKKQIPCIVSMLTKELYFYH
The experiment is described as follows: SAR Analysis of small molecule inhibitors of Sentrin-specific proteases (SENPs) using a Caspase-3 Selectivity assay. [Related pubchem assays (depositor defined):AID2540, AID2599, AID434973, AID489001]. It counts as functional.

Experiment [5] has as its target T5, Sentrin-specific protease 6 (Homo sapiens, UniProt Q9GZR1).
T5 sequence (Q9GZR1 whole entry): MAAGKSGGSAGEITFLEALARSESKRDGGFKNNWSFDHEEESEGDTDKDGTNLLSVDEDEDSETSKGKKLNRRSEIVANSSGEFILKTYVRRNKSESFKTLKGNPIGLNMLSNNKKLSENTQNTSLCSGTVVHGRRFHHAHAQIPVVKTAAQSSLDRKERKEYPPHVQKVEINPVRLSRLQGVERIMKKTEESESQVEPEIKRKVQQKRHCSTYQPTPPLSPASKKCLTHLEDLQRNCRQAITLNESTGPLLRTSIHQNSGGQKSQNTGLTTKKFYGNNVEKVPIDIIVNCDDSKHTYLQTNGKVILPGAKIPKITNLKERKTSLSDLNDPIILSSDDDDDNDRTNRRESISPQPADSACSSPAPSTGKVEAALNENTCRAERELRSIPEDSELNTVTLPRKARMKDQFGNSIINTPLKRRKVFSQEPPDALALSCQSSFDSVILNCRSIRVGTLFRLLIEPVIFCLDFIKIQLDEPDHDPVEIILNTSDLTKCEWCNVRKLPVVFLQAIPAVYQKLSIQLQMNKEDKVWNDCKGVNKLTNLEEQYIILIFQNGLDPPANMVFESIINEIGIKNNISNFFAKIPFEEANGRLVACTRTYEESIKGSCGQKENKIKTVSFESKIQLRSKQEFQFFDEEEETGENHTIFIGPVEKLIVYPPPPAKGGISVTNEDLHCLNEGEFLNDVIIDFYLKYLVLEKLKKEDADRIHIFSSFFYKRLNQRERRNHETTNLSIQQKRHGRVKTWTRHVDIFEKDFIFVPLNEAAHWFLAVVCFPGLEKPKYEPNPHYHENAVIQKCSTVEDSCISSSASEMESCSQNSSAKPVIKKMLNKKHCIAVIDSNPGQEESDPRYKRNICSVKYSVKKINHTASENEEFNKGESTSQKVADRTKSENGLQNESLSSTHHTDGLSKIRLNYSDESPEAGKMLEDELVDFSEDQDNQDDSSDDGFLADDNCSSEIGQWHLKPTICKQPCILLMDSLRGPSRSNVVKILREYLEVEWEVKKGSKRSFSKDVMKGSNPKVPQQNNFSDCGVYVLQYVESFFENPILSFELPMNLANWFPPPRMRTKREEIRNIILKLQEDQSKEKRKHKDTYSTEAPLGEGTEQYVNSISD
The experiment is described as follows: SAR Analysis of small molecule inhibitors of Sentrin-specific protease 6 (SENP6) using a Luminescent assay. [Related pubchem assays (depositor defined):AID2582, AID2599]. It counts as functional.

For experiment [6], the target named is Ras and Rab interactor 1/Tyrosine-protein kinase ABL1 (Homo sapiens, UniProt P00519+Q13671). It counts as functional.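 Note: biochemical TR-FRET dose-response test measuring inhibition of binding between Rin1 and Abl proteins.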
Experiment [7] is described as follows: Luminescence Cell-Based Dose Retest to Confirm Inhibitors of Cancer Stem Cells. [Related pubchem assays (depositor defined):AID2717, AID2721]. It counts as functional. As to conditions: Homo sapiens.
For experiment [8], the system named is Streptococcus sp. 'group A'. The experiment in a line: Streptococcus pyogenes SK(-)GAS viability under kanamycin – luminescence, BacTiterGlo, confirmation, counter-screen for streptokinase expression inhibitor project, dose response (AID 1900). It counts as functional, organism-based.
The target in experiment [9] is DNA (cytosine-5)-methyltransferase 1 (Homo sapiens, UniProt P26358). The experiment is described as follows: inhibition of DNA methylation by DNMT1 – biochemical, fluorescent molecular beacon, confirmation (AID 602386). The format is functional.
A further experiment concerns Streptococcus. The experiment is described as follows: GAS UMAA2166 growth inhibition – luminescence, BacTiterGlo, counter-screen for streptokinase expression inhibitor project, dose response (AID 1915).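 Note: potency for reduction of bacterial viability or growth.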 It counts as functional, organism-based. Background: Counterscreens check selectivity or assay interference.
The target of experiment [10] is T3, Sentrin-specific protease 8. It counts as functional.
For experiment [11] the target is unchanged. It counts as functional. This is another data set of the same source.
In experiment [12] the target is T6, Apoptotic protease-activating factor 1 (Homo sapiens, UniProt O14727).
T6 sequence (O14727 whole entry): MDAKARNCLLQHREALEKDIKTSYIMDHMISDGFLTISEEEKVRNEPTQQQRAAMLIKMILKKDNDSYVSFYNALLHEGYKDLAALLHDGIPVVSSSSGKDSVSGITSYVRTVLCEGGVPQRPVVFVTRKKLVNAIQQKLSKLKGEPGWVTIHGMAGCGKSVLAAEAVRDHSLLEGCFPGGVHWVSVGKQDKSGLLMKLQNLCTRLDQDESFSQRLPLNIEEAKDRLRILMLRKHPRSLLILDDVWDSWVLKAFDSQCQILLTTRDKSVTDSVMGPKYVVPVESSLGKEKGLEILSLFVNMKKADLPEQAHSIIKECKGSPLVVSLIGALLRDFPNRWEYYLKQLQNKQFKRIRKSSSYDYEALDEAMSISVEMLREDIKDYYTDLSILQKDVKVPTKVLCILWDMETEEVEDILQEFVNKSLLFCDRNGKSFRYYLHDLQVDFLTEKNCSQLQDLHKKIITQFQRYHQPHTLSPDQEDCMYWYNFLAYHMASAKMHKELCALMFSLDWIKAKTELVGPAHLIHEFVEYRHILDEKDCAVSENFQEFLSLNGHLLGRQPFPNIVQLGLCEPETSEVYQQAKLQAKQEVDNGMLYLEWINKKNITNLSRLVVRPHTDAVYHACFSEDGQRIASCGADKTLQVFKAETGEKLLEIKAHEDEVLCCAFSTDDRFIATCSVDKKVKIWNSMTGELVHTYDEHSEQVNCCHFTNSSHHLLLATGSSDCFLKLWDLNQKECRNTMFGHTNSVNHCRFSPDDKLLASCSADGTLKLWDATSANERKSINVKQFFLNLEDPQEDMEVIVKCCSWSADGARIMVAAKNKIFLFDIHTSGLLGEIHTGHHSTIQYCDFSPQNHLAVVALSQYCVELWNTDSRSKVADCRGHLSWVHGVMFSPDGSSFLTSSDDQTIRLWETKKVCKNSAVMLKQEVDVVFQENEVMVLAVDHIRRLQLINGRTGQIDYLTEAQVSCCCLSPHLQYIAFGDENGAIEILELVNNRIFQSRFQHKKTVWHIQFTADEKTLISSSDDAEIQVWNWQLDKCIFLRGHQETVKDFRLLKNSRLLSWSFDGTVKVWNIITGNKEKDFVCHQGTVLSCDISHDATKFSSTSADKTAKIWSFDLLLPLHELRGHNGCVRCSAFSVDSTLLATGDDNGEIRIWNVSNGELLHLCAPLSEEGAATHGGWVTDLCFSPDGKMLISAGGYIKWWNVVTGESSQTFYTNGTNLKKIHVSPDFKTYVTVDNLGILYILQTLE
The format is functional.

Nine compounds from ChEMBL document CHEMBL1201862, “PubChem BioAssay data set” (2004) can be followed below.

A word on the EC50: it is the concentration giving half of the maximal effect. The term AC50 denotes the midpoint of the concentration-response curve, whichever way the signal moves. As a reminder, the IC50 is the concentration that inhibits the measured activity by half.

Each structure is given as a SMILES string. The source made the active and inactive calls.

Sequence of Ras and Rab interactor 1/Tyrosine-protein kinase ABL1 (P00519 whole entry): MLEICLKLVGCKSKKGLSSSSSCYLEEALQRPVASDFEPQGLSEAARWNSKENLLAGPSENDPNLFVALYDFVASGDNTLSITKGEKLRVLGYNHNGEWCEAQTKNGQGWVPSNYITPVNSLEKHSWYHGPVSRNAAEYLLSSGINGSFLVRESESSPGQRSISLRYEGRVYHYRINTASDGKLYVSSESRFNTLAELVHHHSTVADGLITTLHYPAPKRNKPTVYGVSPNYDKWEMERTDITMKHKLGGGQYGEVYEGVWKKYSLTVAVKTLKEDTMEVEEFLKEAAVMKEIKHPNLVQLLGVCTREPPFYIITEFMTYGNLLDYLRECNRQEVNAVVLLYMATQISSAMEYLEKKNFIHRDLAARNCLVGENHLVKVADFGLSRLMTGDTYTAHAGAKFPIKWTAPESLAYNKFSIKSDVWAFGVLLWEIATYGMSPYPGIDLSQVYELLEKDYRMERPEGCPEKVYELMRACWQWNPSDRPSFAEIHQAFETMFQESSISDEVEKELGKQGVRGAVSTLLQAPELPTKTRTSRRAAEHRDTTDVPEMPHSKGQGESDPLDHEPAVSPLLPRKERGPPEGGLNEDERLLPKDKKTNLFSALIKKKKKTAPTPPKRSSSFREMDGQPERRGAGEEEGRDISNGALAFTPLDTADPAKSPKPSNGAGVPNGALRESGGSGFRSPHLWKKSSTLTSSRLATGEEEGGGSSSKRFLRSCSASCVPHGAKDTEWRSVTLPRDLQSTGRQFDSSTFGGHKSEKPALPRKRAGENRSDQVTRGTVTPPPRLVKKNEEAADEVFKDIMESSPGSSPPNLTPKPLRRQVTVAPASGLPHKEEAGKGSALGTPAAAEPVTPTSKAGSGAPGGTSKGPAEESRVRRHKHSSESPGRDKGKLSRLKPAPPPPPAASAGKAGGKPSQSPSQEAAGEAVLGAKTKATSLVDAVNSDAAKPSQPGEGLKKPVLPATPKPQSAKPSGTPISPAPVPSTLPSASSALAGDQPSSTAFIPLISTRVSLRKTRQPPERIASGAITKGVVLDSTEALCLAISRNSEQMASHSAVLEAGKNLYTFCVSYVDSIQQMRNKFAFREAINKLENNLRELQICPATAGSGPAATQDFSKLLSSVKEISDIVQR
Sequence of Ras and Rab interactor 1/Tyrosine-protein kinase ABL1 (Q13671 whole entry): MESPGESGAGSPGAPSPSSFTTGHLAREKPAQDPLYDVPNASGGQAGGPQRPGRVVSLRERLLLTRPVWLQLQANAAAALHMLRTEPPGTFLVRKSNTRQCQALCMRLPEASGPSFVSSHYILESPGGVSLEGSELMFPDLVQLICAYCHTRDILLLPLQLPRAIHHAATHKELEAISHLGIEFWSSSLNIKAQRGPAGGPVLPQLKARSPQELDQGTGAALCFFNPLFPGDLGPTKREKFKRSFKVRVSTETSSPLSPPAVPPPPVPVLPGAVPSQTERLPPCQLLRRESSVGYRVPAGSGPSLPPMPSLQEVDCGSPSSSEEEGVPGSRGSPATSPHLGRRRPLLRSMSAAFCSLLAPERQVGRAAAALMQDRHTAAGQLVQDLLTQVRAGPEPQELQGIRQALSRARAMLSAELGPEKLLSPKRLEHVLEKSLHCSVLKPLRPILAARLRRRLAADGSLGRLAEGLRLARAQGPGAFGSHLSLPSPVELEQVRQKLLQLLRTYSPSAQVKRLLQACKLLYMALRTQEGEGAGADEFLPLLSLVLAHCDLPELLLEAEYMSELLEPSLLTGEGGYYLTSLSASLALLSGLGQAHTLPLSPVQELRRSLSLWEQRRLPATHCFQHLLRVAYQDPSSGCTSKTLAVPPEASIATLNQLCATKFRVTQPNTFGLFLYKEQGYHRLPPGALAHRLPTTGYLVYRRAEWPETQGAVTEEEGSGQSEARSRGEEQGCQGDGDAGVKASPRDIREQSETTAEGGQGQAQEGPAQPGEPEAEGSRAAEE
Sequence of DNA (cytosine-5)-methyltransferase 1 (P26358 whole entry): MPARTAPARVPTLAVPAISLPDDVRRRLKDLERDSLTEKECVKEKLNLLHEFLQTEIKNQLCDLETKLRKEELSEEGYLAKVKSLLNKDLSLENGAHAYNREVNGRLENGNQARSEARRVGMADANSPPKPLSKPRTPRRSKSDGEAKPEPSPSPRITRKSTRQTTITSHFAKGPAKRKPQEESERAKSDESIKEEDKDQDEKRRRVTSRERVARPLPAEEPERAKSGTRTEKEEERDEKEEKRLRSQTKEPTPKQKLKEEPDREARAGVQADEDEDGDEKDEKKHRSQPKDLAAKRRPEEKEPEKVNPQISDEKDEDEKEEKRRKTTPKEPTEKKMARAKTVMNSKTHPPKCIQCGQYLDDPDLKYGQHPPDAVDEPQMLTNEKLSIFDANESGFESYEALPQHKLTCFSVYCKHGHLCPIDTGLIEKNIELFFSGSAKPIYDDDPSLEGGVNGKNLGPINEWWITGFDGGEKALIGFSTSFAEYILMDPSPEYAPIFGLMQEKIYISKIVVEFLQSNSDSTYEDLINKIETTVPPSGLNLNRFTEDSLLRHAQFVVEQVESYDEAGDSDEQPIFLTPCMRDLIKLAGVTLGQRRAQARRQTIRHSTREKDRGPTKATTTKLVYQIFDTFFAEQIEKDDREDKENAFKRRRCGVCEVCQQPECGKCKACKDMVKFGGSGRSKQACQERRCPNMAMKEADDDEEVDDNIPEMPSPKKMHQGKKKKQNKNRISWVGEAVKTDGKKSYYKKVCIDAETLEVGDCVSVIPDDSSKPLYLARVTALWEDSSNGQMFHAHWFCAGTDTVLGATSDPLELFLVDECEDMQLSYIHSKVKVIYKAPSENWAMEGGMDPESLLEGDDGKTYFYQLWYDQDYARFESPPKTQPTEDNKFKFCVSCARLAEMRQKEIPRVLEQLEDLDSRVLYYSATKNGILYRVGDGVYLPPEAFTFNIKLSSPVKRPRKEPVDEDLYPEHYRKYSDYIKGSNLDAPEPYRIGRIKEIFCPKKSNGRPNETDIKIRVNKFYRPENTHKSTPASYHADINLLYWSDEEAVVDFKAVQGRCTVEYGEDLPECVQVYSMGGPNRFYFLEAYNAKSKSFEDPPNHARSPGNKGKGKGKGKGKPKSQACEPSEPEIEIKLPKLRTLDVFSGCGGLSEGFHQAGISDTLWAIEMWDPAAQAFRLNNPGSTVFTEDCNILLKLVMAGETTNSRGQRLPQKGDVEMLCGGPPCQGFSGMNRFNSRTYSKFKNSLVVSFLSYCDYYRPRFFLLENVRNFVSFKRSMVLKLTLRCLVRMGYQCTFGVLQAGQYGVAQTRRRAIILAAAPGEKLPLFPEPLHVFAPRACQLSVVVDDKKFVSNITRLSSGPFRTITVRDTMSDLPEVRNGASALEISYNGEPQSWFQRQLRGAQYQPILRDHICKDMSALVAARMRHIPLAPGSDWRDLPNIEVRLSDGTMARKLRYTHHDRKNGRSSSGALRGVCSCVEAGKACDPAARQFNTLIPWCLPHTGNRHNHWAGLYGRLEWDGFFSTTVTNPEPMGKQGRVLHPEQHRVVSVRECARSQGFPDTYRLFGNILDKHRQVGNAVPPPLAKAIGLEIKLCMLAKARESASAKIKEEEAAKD
Sequence of Cytochrome P450 2C9 (P11712 whole entry): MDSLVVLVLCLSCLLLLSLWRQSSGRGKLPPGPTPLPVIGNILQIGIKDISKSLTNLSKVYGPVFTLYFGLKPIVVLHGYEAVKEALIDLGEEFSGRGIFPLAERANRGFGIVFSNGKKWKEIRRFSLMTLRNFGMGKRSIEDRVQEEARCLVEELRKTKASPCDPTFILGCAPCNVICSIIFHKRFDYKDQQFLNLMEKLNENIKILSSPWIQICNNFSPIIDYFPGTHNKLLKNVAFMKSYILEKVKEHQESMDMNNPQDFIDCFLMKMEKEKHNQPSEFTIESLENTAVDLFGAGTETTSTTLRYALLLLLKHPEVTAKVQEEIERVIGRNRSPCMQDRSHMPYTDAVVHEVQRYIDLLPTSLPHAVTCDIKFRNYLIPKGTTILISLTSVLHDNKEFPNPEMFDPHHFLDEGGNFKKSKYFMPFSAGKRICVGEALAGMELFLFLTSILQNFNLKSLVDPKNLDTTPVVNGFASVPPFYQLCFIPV

With `O=C(Nc1cc[n+](-c2nc3ccccc3nc2[N-]S(=O)(=O)c2ccccc2)cc1)c1cccs1`, the EC50 in [1] and in experiment [2] was > 99 µM (inactive) each time.
For the compound `COc1cc(/C=N/NC(=O)c2cccnc2)ccc1OC(=O)c1ccc2c(c1)OCO2`, the AC50 on Cytochrome P450 2C9 is 7.94 µM (inconclusive). Also, the EC50 in experiment [1] and in experiment [2] was > 99 µM (inactive) in each case.
Take `Cc1ccc(N/N=C/c2c[nH]c3ccccc23)cc1`: the IC50 in experiment [3] is 3.21 µM (active); in [4], 7.41 µM (active); at Caspase-3 it was 6.02 µM (active); in [5], 6.76 µM (active).
Turning to `COc1ccccc1CN1C[C@@H]2C[C@@H](c3ccc4nsnc4c3)N3CCC[C@@]23C1=O`, in experiment [6], the IC50 is 22.3 µM (inactive).
Consider `CC(C)COc1ccc(-c2nn(-c3ccccc3)cc2/C=C2/SC(=S)N(CC(=O)O)C2=O)cc1`, for which, in experiment [7], the AC50 is 2.87 µM (active). The EC50 in experiment [8] is 2.85 µM (active); with Streptococcus, 4.38 µM (active). For the same compound, in experiment [9], the IC50 was 5.58 µM (active).
Regarding `CC1=NN(c2ccc(C(F)(F)F)cn2)C(=O)C1`, the 50% inhibitory concentration (IC50) was 15.6 µM (active) in experiment [10], 10.1 µM (active) in [11] and 17.7 µM (active) in experiment [12].
On to `COC(=O)c1nn(-c2ccccc2)c2c1C(c1ccc(OC)cc1)(C(F)(F)F)N/C(=N\c1ccc(C)cc1)O2` (stereo unspecified), for which the IC50 (in [3]; in experiment [4]; on Caspase-3; in [5]) was > 99 µM (inactive) throughout.
With `CSCCC(c1nnnn1C1CCCCC1)N1CCC(n2c(O)nc3ccccc32)CC1` (stereo unspecified), the IC50 in experiment [6] was 6.82 µM (active).
Turning to `COc1cccc2sc(NC(=O)c3ccc(S(=O)(=O)N(C)C4CCCC4)cc3)nc12`, the IC50 (in [3]; in experiment [4]; on Caspase-3; in [5]) was > 99 µM (inactive) each time.
